# In article PMC7753086 (Computational and Structural Biotechnology Journal, 2020):
# Where “and” joins values, the source holds several entries; their conditions need not be identical. Equal entries are not always repeated. Entries after “also recorded” stand apart in the source; their conditions may differ. Where two headings read alike, the source gives them in different places.
# What was measured:
# [1] = after 5 days at 20 °C; cited from earlier work
# [2] = molecular target: mushroom tyrosinase (Agaricus bisporus, UniProt C7FF04); experiment: biochemical; assay type: biochemical; settings: for Tyrosinase inhibition (%): 25 μM, L-tyrosine as substrate, NI: no inhibition, means ± SEMs, 25 µM; for inhibitory potency relative to kojic acid: from IC50 values
# [3] = test system: mushroom tyrosinase; experiment: Kinetic studies of tyrosinase inhibition; assay type: biochemical; settings: for mode of tyrosinase inhibition: Lineweaver-Burk plots, L-tyrosine as substrate
# [4] = test system: B16F10 melanoma cells; experiment: Melanin content assay in α-MSH and IBMX co-stimulated B16F10 cells; assay type: cell-based, murine; settings: for melanin contents: 5, 10, 20 μM, α-MSH and IBMX, 48 h
# [5] = test system: cellular tyrosinase in B16F10 melanoma cells; assay type: cell-based, murine; settings: for cellular tyrosinase activity: 5, 10, 20 μM, α-MSH 1 μM and IBMX 200 µM, 48 h
# [6] = test system: B16F10 melanoma cells; experiment: Cell viability assay: EZ-cytox assay; assay type: cell-based, murine; settings: up to 20 µM, 24 h
# Sequence of mushroom tyrosinase (Agaricus bisporus, UniProt C7FF04) (C7FF04 1-392): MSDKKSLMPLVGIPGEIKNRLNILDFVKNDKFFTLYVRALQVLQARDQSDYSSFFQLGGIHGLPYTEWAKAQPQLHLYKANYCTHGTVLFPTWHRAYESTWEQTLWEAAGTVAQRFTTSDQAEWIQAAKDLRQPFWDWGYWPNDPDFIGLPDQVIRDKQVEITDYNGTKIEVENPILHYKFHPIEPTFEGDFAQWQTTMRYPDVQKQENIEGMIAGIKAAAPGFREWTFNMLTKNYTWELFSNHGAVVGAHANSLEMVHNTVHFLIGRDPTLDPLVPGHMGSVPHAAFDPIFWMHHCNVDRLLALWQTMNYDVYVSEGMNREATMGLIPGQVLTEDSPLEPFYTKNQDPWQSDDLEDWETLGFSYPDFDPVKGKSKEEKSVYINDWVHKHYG
smiles,measurement,setting,value
OC[C@H]1O[C@@H](Oc2ccc(O)cc2)[C@H](O)[C@@H](O)[C@@H]1O [Arbutin],decomposition,[1],10%
"O=C1/C(=C/c2ccc(O)c(O)c2)OC(=S)N1c1ccccc1 [Compound 1b, (Z)-5-(3,4-Dihydroxybenzylidene)-3-phenyl-2-thioxooxazolidin-4-one]",IC50,[2],53.38 ± 0.39 µM
"O=C1/C(=C/c2ccc(O)cc2O)OC(=S)N1c1ccccc1 [Compound 1c, (Z)-5-(2,4-Dihydroxybenzylidene)-3-phenyl-2-thioxooxazolidin-4-one]",mode of tyrosinase inhibition,[3],competitively inhibited; also recorded: competitive inhibitors
same,Ki,[3]; inhibitor conc. 2.5 μM,3.02 µM
same,Vmax,[3]; inhibitor conc. 2.5 μM,0.04 mM/min
same,Ki,[3]; inhibitor conc. 5.0 μM,2.51 µM
same,Vmax,[3]; inhibitor conc. 5.0 μM,0.04 mM/min
same,Ki,[3]; inhibitor conc. 10.0 μM,2.19 µM
same,Vmax,[3]; inhibitor conc. 10.0 μM,0.04 mM/min
same,Vmax,[3]; regardless of concentration,0.04 mM/min
same,melanin contents,[4],significantly and potently decreased melanin contents
same,inhibition of melanin production compared with kojic acid at 20 µM,[4]; compound at 10 μM,inhibited melanin production more than kojic acid
same,cellular tyrosinase activity,[5],significantly and concentration-dependently decreased cellular tyrosinase activity
same,cellular tyrosinase inhibition compared with kojic acid at 20 μM,[5]; compound at 10 μM,more potent than kojic acid; also recorded: inhibited cellular tyrosinase more than kojic acid
same,cytotoxic effect (cell viability),[6],did not have a significant cytotoxic effect
same,IC50,[2],4.7 ± 0.4 µM
same,Tyrosinase inhibition (%),[2],78.05 ± 4.03%
same,inhibitory potency relative to kojic acid,[2],5 fold and 4.9 fold
"O=C1/C(=C/c2ccccc2O)OC(=S)N1c1ccccc1 [Compound 1j, (Z)-5-(2-Hydroxybenzylidene)-3-phenyl-2-thioxooxazolidin-4-one]",mode of tyrosinase inhibition,[3],competitively inhibited; also recorded: competitive inhibitors
same,Ki,[3]; inhibitor conc. 5.0 μM,5.85 µM
same,Vmax,[3]; inhibitor conc. 5.0 μM,0.027 mM/min
same,Ki,[3]; inhibitor conc. 10.0 μM,4.51 µM
same,Vmax,[3]; inhibitor conc. 10.0 μM,0.027 mM/min
same,Ki,[3]; inhibitor conc. 20.0 μM,3.22 µM
same,Vmax,[3]; inhibitor conc. 20.0 μM,0.027 mM/min
same,Vmax,[3]; regardless of concentration,0.027 mM/min
same,melanin contents,[4],significantly and potently decreased melanin contents
same,inhibition of melanin production compared with kojic acid at 20 µM,[4]; compound at 5 μM,inhibited melanin production more than kojic acid
same,cellular tyrosinase activity,[5],significantly and concentration-dependently decreased cellular tyrosinase activity
same,cellular tyrosinase inhibition compared with kojic acid at 20 μM,[5]; compound at 5 μM,inhibited cellular tyrosinase more than kojic acid
same,cellular tyrosinase inhibition compared with kojic acid at 20 μM,[5]; compound at 10 μM,more potent than kojic acid
same,cytotoxic effect (cell viability),[6],did not have a significant cytotoxic effect
same,IC50,[2],11.2 ± 0.54 µM
same,Tyrosinase inhibition (%),[2],71.12 ± 0.71%
same,inhibitory potency relative to kojic acid,[2],2 fold and 2.1 fold
"O=C1/C(=C/c2ccc(O)c(Br)c2)OC(=S)N1c1ccccc1 [Compound 1n, (Z)-5-(3-Bromo-4-hydroxybenzylidene)-3-phenyl-2-thioxooxazolidin-4-one]",Tyrosinase inhibition (%),[2],24.96 ± 4.72%
